Source: patent publication US8092816B2, “Insecticidal compositions for control of general household pests” (priority 2004, dated 2012)

Assays:
Format in all cases: in vivo
Oriental cockroach = assay: Example 4: Oriental cockroach knockdown and mortality, bifenthrin and imidacloprid
Text: (§1) The following examples further illustrate the present invention, but, of course, should not be construed as in any way limiting its scope. The examples set forth certain biological data illustrating the efficacy of the compositions of the present invention in controlling general household pests. Each example embodies a separate test wherein the pests were randomly selected from a population at a random age. As a result, from example to example, the ages of the pests can be very different. This age difference potentially translates to different baselines for each example. Therefore, data should only be compared within the example and not from example to example due to the differences in age of the pests from example to example. Unless otherwise indicated, all parts, percentages, and the like are by weight. The spray chamber used in the examples was approximately 76 inches tall, 73 inches long and 31 inches deep with an adjustable shelf (approximately 22 inches deep) and a movable spray nozzle. The spray chambers were calibrated to deliver a volume of approximately 1 gallon of liquid per 1000 square feet of area at about 14 pounds per square inch of pressure. A DeVilbiss hand held sprayer (Atomizer model 152) manufactured by DeVilbiss located in Glendale Heights, Ill. was used in testing house flies and mosquitoes. The DeVilbiss was used to apply approximately 3-5 milliliters of product at about 10 pounds per square inch.
The compositions of the present invention were tested for Oriental cockroach activity in the following manner:
Test compositions made up of TALSTARONE® MULTI-INSECTICIDE and a wettable powder of imidacloprid (MERIT) in distilled water were prepared that provided appropriate rates of application of combinations of bifenthrin and imidacloprid, as well as bifenthrin and imidacloprid alone.
(§2) The spray chamber was then calibrated to deliver the treatment solution at the desired volume and pressure over the desired area on the chamber shelf. Spray chamber shelf height was adjusted to approximately 18 inches from the spray tip. The shelf was then covered with aluminum foil and the center of the shelf from front-to-back and end-to-end was determined. A desired number of 4.0″ sieve circles were marked on the aluminum foil with a permanent marker. The inside of a desired number of PVC rings were coated with a petroleum jelly/mineral oil mixture (1:2 ratio). The PVC rings were place on the sieve circles. 10 male Oriental cockroaches were placed inside each PVC ring. The sprayer was activated and the test compound was applied to each PVC ring interior. Oriental cockroach knockdown and mortality were measured.

German cockroach = assay: Example 8: German cockroach mortality, bifenthrin and thiamethoxam
Text: as §1
The compositions of the present invention were tested for German cockroach activity in the following manner:
(§3) Test compositions made up of TALSTARONE® MULTI-INSECTICIDE and a water dispersible granular of thiamethoxam (CENTRIC) in distilled water were prepared that provided appropriate rates of application of combinations of bifenthrin and thiamethoxam, as well as bifenthrin and thiamethoxam alone.
as §2, with “male German” for “male Oriental”, “interior. German” for “interior. Oriental”, “cockroach” for “cockroach knockdown and”, “mortality was” for “mortality were”

House Fly [1] = assay: Example 11: house fly knockdown and mortality, bifenthrin and thiamethoxam
Text: as §1
(§4) The compositions of the present invention were tested for house fly activity in the following manner:
as §3
(§5) A DeVilbiss hand held sprayer was used to deliver the treatment solution at the desired volume and pressure. The house flies to be treated were collected and placed in screened 16 oz paper cups. The hand held sprayer was activated and the test compound was applied to each paper cup interior. House fly knockdown and mortality were measured.

House Fly [2] = assay: Example 12: house fly knockdown and mortality, bifenthrin and thiamethoxam (higher thiamethoxam rates)
Text: as §1, §4, §3, §5

House Flies = assay: Example 17: house fly knockdown and mortality, bifenthrin and clothianidin
Text: as §1, §4
Test compositions made up of TALSTARONE® MULTI-INSECTICIDE and a 16% a.i. water dispersible granular of clothianidin in distilled water were prepared that provided appropriate rates of application of combinations of bifenthrin and clothianidin, as well as bifenthrin and clothianidin alone.
as §5

[3] = rate of appln. 10 PPM (0.001% by weight)
[4] = rate of appln. 50 PPM (0.005% by weight)

SMILES: Cc1c(COC(=O)[C@@H]2[C@H](/C=C(\Cl)C(F)(F)F)C2(C)C)cccc1-c1ccccc1 (racemic) [A, 2-methylbiphenyl-3-ylmethyl (Z)-(1RS)-cis-3-(2-chloro-3,3,3-trifluoroprop-1-enyl)-2,2-dimethylcyclopropanecarboxylate]
- Knockdown Rate @ 15 minute (Oriental cockroach; 10 PPM, 0.001% by weight): 0%
- Knockdown Rate @ 30 minute (Oriental cockroach; 10 PPM, 0.001% by weight): 0%
- Mortality Rate @ 60 minute (Oriental cockroach; 10 PPM, 0.001% by weight): 0%
- Mortality Rate @ 120 minute (Oriental cockroach; 10 PPM, 0.001% by weight): 0%
- Mortality Rate @ 4 hours (Oriental cockroach; 10 PPM, 0.001% by weight): 0%
- Mortality Rate @ 1 day (Oriental cockroach; 10 PPM, 0.001% by weight): 15%
- Mortality Rate @ 2 days (Oriental cockroach; 10 PPM, 0.001% by weight): 15%
- Knockdown Rate @ 15 minute (Oriental cockroach; 50 PPM, 0.005% by weight): 0%
- Knockdown Rate @ 30 minute (Oriental cockroach; 50 PPM, 0.005% by weight): 0%
- Mortality Rate @ 60 minute (Oriental cockroach; 50 PPM, 0.005% by weight): 5%
- Mortality Rate @ 120 minute (Oriental cockroach; 50 PPM, 0.005% by weight): 5%
- Mortality Rate @ 4 hours (Oriental cockroach; 50 PPM, 0.005% by weight): 30%
- Mortality Rate @ 1 day (Oriental cockroach; 50 PPM, 0.005% by weight): 70%
- Mortality Rate @ 2 days (Oriental cockroach; 50 PPM, 0.005% by weight): 70%
- Mortality Rate @ 60 minutes (German cockroach; 10 PPM, 0.001% by weight): 8%
- Mortality Rate @ 120 minutes (German cockroach; 10 PPM, 0.001% by weight): 33%
- Mortality Rate @ 1 day (German cockroach; 10 PPM, 0.001% by weight): 35%
- Mortality Rate @ 2 day (German cockroach; 10 PPM, 0.001% by weight): 60%
- Mortality Rate @ 4 days (German cockroach; 10 PPM, 0.001% by weight): 98%
- Mortality Rate @ 60 minutes (German cockroach; 50 PPM, 0.005% by weight): 15%
- Mortality Rate @ 120 minutes (German cockroach; 50 PPM, 0.005% by weight): 48%
- Mortality Rate @ 1 day (German cockroach; 50 PPM, 0.005% by weight): 58%
- Mortality Rate @ 2 day (German cockroach; 50 PPM, 0.005% by weight): 100%
- Mortality Rate @ 4 days (German cockroach; 50 PPM, 0.005% by weight): 100%
- Knockdown Rate @ 15 minute (House Fly [1]; A 10 PPM, 0.001% by weight): 0%
- Knockdown Rate @ 30 minute (House Fly [1]; A 10 PPM, 0.001% by weight): 0%
- Knockdown Rate @ 45 minutes (House Fly [1]; A 10 PPM, 0.001% by weight): 6%
- Knockdown Rate @ 60 minutes (House Fly [1]; A 10 PPM, 0.001% by weight): 19%
- Knockdown Rate @ 120 minutes (House Fly [1]; A 10 PPM, 0.001% by weight): 19%
- Knockdown Rate @ 4 hours (House Fly [1]; A 10 PPM, 0.001% by weight): 48%
- Mortality Rate @ 1 day (House Fly [1]; A 10 PPM, 0.001% by weight): 3%
- Knockdown Rate @ 15 minute (House Fly [1]; A 50 PPM, 0.005% by weight): 0%
- Knockdown Rate @ 30 minute (House Fly [1]; A 50 PPM, 0.005% by weight): 19%
- Knockdown Rate @ 45 minutes (House Fly [1]; A 50 PPM, 0.005% by weight): 47%
- Knockdown Rate @ 60 minutes (House Fly [1]; A 50 PPM, 0.005% by weight): 59%
- Knockdown Rate @ 120 minutes (House Fly [1]; A 50 PPM, 0.005% by weight): 63%
- Knockdown Rate @ 4 hours (House Fly [1]; A 50 PPM, 0.005% by weight): 100%
- Mortality Rate @ 1 day (House Fly [1]; A 50 PPM, 0.005% by weight): 63%
- Knockdown Rate @ 15 minute (House Fly [2]; 10 PPM, 0.001% by weight): 0%
- Knockdown Rate @ 30 minute (House Fly [2]; 10 PPM, 0.001% by weight): 0%
- Knockdown Rate @ 45 minutes (House Fly [2]; 10 PPM, 0.001% by weight): 17%
- Knockdown Rate @ 60 minutes (House Fly [2]; 10 PPM, 0.001% by weight): 40%
- Knockdown Rate @ 120 minutes (House Fly [2]; 10 PPM, 0.001% by weight): 63%
- Knockdown Rate @ 4 hours (House Fly [2]; 10 PPM, 0.001% by weight): 50%
- Mortality Rate @ 1 day (House Fly [2]; 10 PPM, 0.001% by weight): 30%
- Knockdown Rate @ 15 minute (House Fly [2]; 50 PPM, 0.005% by weight): 0%
- Knockdown Rate @ 30 minute (House Fly [2]; 50 PPM, 0.005% by weight): 78%
- Knockdown Rate @ 45 minutes (House Fly [2]; 50 PPM, 0.005% by weight): 97%
- Knockdown Rate @ 60 minutes (House Fly [2]; 50 PPM, 0.005% by weight): 97%
- Knockdown Rate @ 120 minutes (House Fly [2]; 50 PPM, 0.005% by weight): 97%
- Knockdown Rate @ 4 hours (House Fly [2]; 50 PPM, 0.005% by weight): 97%
- Mortality Rate @ 1 day (House Fly [2]; 50 PPM, 0.005% by weight): 97%
- Knockdown Rate @ 15 minute (House Flies; [3]): 0%
- Knockdown Rate @ 30 minute (House Flies; [3]): 0%
- Knockdown Rate @ 45 minutes (House Flies; [3]): 0%
- Knockdown Rate @ 60 minutes (House Flies; [3]): 0%
- Knockdown Rate @ 120 minutes (House Flies; [3]): 3%
- Knockdown Rate @ 180 minutes (House Flies; [3]): 3%
- Knockdown Rate @ 4 hours (House Flies; [3]): 3%
- Mortality Rate @ 1 day (House Flies; [3]): 3%
- Knockdown Rate @ 15 minute (House Flies; [4]): 3%
- Knockdown Rate @ 30 minute (House Flies; [4]): 55%
- Knockdown Rate @ 45 minutes (House Flies; [4]): 66%
- Knockdown Rate @ 60 minutes (House Flies; [4]): 68%
- Knockdown Rate @ 120 minutes (House Flies; [4]): 74%
- Knockdown Rate @ 180 minutes (House Flies; [4]): 74%
- Knockdown Rate @ 4 hours (House Flies; [4]): 76%
- Mortality Rate @ 1 day (House Flies; [4]): 79%
